# Measurements as given in US8853230B2, “Inhibitors of JAK” (Portola Pharmaceuticals, Inc., priority 2009, dated 2014).
# What was measured:
# Format in all cases: biochemical
# TYK2 = molecular target: T1, TYK2 (Homo sapiens, UniProt P29597); assay: Z'-LYTE kinase assay, TYK2 tyrosine phosphorylation activity
# T1 construct: 5 μl of catalytic domain recombinant Kinase enzyme+Tyr peptide substrate (Invitrogen, Calif.); purchased Invitrogen
# T1 sequence (P29597 897-1176 limits assumed): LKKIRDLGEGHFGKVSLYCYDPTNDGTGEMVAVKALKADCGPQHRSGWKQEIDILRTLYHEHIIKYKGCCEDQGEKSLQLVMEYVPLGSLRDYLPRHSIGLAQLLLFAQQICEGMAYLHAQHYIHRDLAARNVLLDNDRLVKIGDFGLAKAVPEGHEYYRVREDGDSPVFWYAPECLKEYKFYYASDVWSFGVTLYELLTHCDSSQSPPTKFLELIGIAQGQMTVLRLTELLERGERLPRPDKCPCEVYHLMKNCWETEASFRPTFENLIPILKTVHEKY
# Procedure: JAK and TYK2 tyrosine phosphorylation activity is measured using the Z′-LYTE™ Technology developed by Invitrogen Corporation (Carlsbad, Calif.). For JAK1, JAK2 and JAK3 the Z′-LYTE™ Kinase Assay Kit-Tyr6 Peptide (part number PV4122) was used. For TYK2 the Z′-LYTE™ Kinase Assay Kit-Tyr6 Peptide (part number PV3192) was used. The Z′-LYTE™ biochemical assay employs a fluorescence resonance energy transfer (FRET) coupled-enzyme format and is based on the differential sensitivity of phosphorylated and non-phosphorylated peptides to proteolitic cleavage. The assay uses a synthetic peptide substrate that is labelled with a donor fluorophore (coumarin) and an acceptor fluorophore (fluorescein) that make up a FRET pair. In the primary reaction (the Kinase Reaction), the kinase transfers the γ-phosphate of ATP to a single tyrosine residue on the substrate, while the presence of a kinase inhibitor in the primary reaction suppresses phosphorylation. In the secondary reaction (the Development Reaction), a site-specific protease (the Development Reagent) is added. The development buffer quenches the Kinase Reaction, while the protease recognizes and cleaves non-phosphorylated Z′-LYTE™ peptide substrate. Cleavage disrupts FRET between the donor and acceptor fluorophores on the non-phosphoryleted substrate, while uncleaved, phosphorylated substrate maintains FRET.
# To test the ability of candidate molecules to inhibit JAK tyrosine phosphorylation activity, molecules are reconstituted in 100% DMSO and serially diluted 1:10 in polypropylene v-bottom microtiter plates. The candidate molecules are then diluted 1:25 into kinase buffer and 2.5 μl transferred into duplicate wells of a 384 well low volume black microtiter assay plate (Corning, USA). The final DMSO concentration in the assay is 1%. The kinase reaction contains 2.5 μl of a candidate molecule, 5 μl of catalytic domain recombinant Kinase enzyme+Tyr peptide substrate (Invitrogen, Calif.) and 2.5 μl ATP (Invitrogen, Calif.). The kinase reaction is allowed to procede for 1 hour at room temperature. The protease reaction is initiated by the addition of 5 μl Development Reagent (Invitrogen, Calif.). After 1 hour incubation at room temperature the fluorescence is measured using a FlexStation plate reader (Molecular Devices, Sunnyvale, Calif.). The reader settings used are as follows: Fluorescence mode, endpoint, top read, excitation 400 nm, emission 445 nm and 520 nm, Auto Cutoff 435 nm and 515 nm, PMT sensitivity high, 6 reads per well. Inhibition of JAK activity is calculated as the percent phosphorylation of substrate in the presence of inhibitor compared to the percent phosphorylation of substrate in the absence of inhibitor. IC50's were derived using Xlfit 4.3 (IDBS, UK), 4 parameter logistic model 205: Y=(A+((B−A)/(1+((C/x)^D)))).
# JAK2 = molecular target: T2, JAK2 (Homo sapiens, UniProt O60674); assay: Z'-LYTE kinase assay, JAK2 tyrosine phosphorylation activity
# T2 construct: 5 μl of catalytic domain recombinant Kinase enzyme+Tyr peptide substrate (Invitrogen, Calif.); purchased Invitrogen
# T2 sequence (O60674 849-1124 limits assumed): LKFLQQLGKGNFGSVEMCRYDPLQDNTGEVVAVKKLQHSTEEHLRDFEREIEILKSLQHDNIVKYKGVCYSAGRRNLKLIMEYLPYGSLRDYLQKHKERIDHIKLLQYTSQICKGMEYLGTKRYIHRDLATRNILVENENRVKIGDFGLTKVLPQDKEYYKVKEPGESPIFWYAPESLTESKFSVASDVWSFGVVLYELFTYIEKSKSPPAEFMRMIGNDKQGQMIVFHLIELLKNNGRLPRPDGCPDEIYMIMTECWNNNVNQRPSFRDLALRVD
# Summary of the method: (§1)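 Inhibition is expressed as substrate phosphorylation relative to inhibitor-free wells, fitted with a 4-parameter logistic model for IC50. Reactions contain catalytic-domain kinase, Tyr6 peptide and ATP, run 1 h at room temperature. Development protease is added for 1 h before fluorescence readout.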
# JAK1 = molecular target: T3, JAK1 (Homo sapiens, UniProt P23458); assay: Z'-LYTE kinase assay, JAK1 tyrosine phosphorylation activity; conditions: read-out: JAK 1 IC50
# T3 construct: 5 μl of catalytic domain recombinant Kinase enzyme+Tyr peptide substrate (Invitrogen, Calif.); purchased Invitrogen
# T3 sequence (P23458 875-1153 limits assumed): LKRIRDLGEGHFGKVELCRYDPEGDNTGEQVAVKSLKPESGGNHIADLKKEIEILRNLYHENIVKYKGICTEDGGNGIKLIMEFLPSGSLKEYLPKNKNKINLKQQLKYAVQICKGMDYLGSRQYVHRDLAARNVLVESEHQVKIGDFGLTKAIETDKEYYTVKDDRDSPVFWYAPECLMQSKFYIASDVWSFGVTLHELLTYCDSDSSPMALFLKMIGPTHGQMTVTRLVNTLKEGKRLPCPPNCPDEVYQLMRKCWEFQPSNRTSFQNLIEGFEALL
# Summary of the method: as §1
# JAK3 = molecular target: T4, JAK3 (Homo sapiens, UniProt P52333); assay: Z'-LYTE kinase assay, JAK3 tyrosine phosphorylation activity
# T4 construct: 5 μl of catalytic domain recombinant Kinase enzyme+Tyr peptide substrate (Invitrogen, Calif.); purchased Invitrogen
# T4 sequence (P52333 822-1111 limits assumed): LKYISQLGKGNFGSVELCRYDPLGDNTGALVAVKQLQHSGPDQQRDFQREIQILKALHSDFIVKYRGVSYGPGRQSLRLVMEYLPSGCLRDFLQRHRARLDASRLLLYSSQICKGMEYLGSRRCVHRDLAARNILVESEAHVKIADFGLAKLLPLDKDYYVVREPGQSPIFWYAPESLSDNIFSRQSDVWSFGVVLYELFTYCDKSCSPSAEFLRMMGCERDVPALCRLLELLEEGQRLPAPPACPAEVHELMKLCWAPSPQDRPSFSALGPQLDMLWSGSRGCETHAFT
# Summary of the method: as §1
Structure (SMILES),IC50 (TYK2) [µM],IC50 (JAK2) [µM],IC50 (JAK1) [µM],IC50 (JAK3) [µM]
"CCNc1nc(Nc2cccc(NC(=O)N3CCCC3)c2)ncc1C(N)=O [Example 134, 4-(ethylamino)-2-(3-(pyrrolidine-1-carboxamido)phenylamino)pyrimidine-5-carboxamide]",0.01 to 0.1,0.01 to 0.1,0.01 to 0.1,0.001 to 0.01
"NC(=O)c1cnc(Nc2cccc(NC(=O)N3CCCC3)c2)nc1NCC(F)(F)F [Example 136, 2-(3-(pyrrolidine-1-carboxamido)phenylamino)-4-(2,2,2-trifluoroethylamino)pyrimidine-5-carboxamide]",0.01 to 0.1,0.01 to 0.1,0.01 to 0.1,0.01 to 0.1
"COC[C@@H]1CCCN1C(=O)Nc1cccc(Nc2ncc(C(N)=O)c(N[C@H](C)c3ccccc3)n2)c1 [Example 138, 2-(3-((S)-2-(methoxymethyl)pyrrolidine-1-carboxamido)phenylamino)-4-((R)-1-phenylethylamino)pyrimidine-5-carboxamide]",0.01 to 0.1,0.01 to 0.1,0.1 to 1,0.001 to 0.01
"CN(C(=O)N1CCCC1)c1cccc(Nc2ncc(C(N)=O)c(NCc3ccccc3)n2)c1 [Example 141, 4-(benzylamino)-2-(3-(N-methylpyrrolidine-1-carboxamido)phenylamino)pyrimidine-5-carboxamide]",0.1 to 1,0.01 to 0.1,0.1 to 1,0.001 to 0.01
"CC[C@H](C)Nc1nc(Nc2cccc(NC(=O)COC)c2)ncc1C(N)=O [Example 144, (S)-4-(sec-butylamino)-2-(3-(2-methoxyacetamido)phenylamino)pyrimidine-5-carboxamide]",0.01 to 0.1,0.1 to 1,0.1 to 1,0.01 to 0.1
CC[C@H](C)Nc1nc(Nc2cccc(NC(=O)N3CCCC3)c2)ncc1C(N)=O [Example 145],0.01 to 0.1,0.01 to 0.1,0.01 to 0.1,0.001 to 0.01
"C[C@@H]1CCCN1C(=O)Nc1cccc(Nc2ncc(C(N)=O)c(N[C@H](C)c3ccccc3)n2)c1 [Example 148, 2-(3-((R)-2-methylpyrrolidine-1-carboxamido)phenylamino)-4-((R)-1-phenylethylamino)pyrimidine-5-carboxamide]",0.01 to 0.1,0.01 to 0.1,0.1 to 1,0.001 to 0.01
"COCC(=O)N(c1cccc(Nc2ncc(C(N)=O)c(NCc3ccccc3)n2)c1)C1CC1 [Example 150, 4-(benzylamino)-2-(3-(N-cyclopropyl-2-methoxyacetamido)phenylamino)pyrimidine-5-carboxamide]",0.1 to 1,> 1,> 1,0.1 to 1
"NC(=O)c1cnc(Nc2cccc(N(C(=O)C3CC3)C3CC3)c2)nc1NCc1ccccc1 [Example 151, 4-(benzylamino)-2-(3-(N-cyclopropylcyclopropanecarboxamido)phenylamino)pyrimidine-5-carboxamide]",> 1,> 1,> 1,> 1
"CC(=O)Nc1cccc(Nc2ncc(C(N)=O)c(N[C@@H](c3ccccc3)C3CC3)n2)c1 [Example 152, (R)-2-(3-acetamidophenylamino)-4-(cyclopropyl(phenyl)methylamino)pyrimidine-5-carboxamide]",0.1 to 1,0.1 to 1,0.1 to 1,0.01 to 0.1
"CNC(=O)Nc1cc(Nc2ncc(C(N)=O)c(NCc3ccccc3)n2)ccc1F [Example 158, 4-(benzylamino)-2-(4-fluoro-3-(3-methylureido)phenylamino)pyrimidine-5-carboxamide]",0.01 to 0.1,0.01 to 0.1,> 1,0.001 to 0.01
"NC(=O)c1cnc(Nc2ccc(N3CCCC3)c(NC(=O)N3CCCC3)c2)nc1NCc1ccccc1 [Example 159, 4-(benzylamino)-2-(4-(pyrrolidin-1-yl)-3-(pyrrolidine-1-carboxamido)phenylamino)pyrimidine-5-carboxamide]",0.01 to 0.1,0.01 to 0.1,0.1 to 1,0.001 to 0.01
"CC(=O)N(c1cccc(Nc2ncc(C(N)=O)c(N[C@H](C)c3ccccc3)n2)c1)C1CC1 [Example 161, (R)-2-(3-(N-cyclopropylacetamido)phenylamino)-4-(1-phenylethylamino)pyrimidine-5-carboxamide]",0.1 to 1,0.01 to 0.1,0.1 to 1,0.001 to 0.01
"COCC(=O)N(c1cccc(Nc2ncc(C(N)=O)c(N[C@H](C)c3ccccc3)n2)c1)C1CC1 [Example 162, (R)-2-(3-(N-cyclopropyl-2-methoxyacetamido)phenylamino)-4-(1-phenylethylamino)pyrimidine-5-carboxamide]",0.01 to 0.1,0.01 to 0.1,0.01 to 0.1,0.001 to 0.01
"CNC(=O)Nc1cc(Nc2ncc(C(N)=O)c(NC3CCCC3)n2)ccc1Cl [Example 166, 2-(4-chloro-3-(3-methylureido)phenylamino)-4-(cyclopentylamino)pyrimidine-5-carboxamide]",0.01 to 0.1,0.01 to 0.1,0.01 to 0.1,0.01 to 0.1
"NC(=O)c1cnc(Nc2ccc(Cl)c(NC(=O)N3CCCC3)c2)nc1NC1CCCC1 [Example 167, 2-(4-chloro-3-(pyrrolidine-1-carboxamido)phenylamino)-4-(cyclopentylamino)pyrimidine-5-carboxamide]",0.01 to 0.1,0.1 to 1,0.01 to 0.1,0.01 to 0.1
"NC(=O)c1cnc(Nc2ccc(Cl)c(NC(=O)N3CCCC3)c2)nc1NCc1cccc(Cl)c1 [Example 173, 2-(4-chloro-3-(pyrrolidine-1-carboxamido)phenylamino)-4-(3-chlorobenzylamino)pyrimidine-5-carboxamide]",0.1 to 1,0.1 to 1,> 1,0.01 to 0.1
"NC(=O)c1cnc(Nc2ccc(Cl)c(NC(=O)N3CCCC3)c2)nc1NCC1CC1 [Example 174, 2-(4-chloro-3-(pyrrolidine-1-carboxamido)phenylamino)-4-(cyclopropylmethylamino)pyrimidine-5-carboxamide]",0.01 to 0.1,0.1 to 1,0.01 to 0.1,0.01 to 0.1
"CC[C@H](C)Nc1nc(Nc2ccc(Cl)c(NC(=O)NC)c2)ncc1C(N)=O [Example 175, (S)-4-(sec-butylamino)-2-(4-chloro-3-(3-methylureido)phenylamino)pyrimidine-5-carboxamide]",0.01 to 0.1,0.1 to 1,0.1 to 1,0.01 to 0.1
"CC[C@H](C)Nc1nc(Nc2ccc(Cl)c(NC(=O)N3CCCC3)c2)ncc1C(N)=O [Example 176, (S)-4-(sec-butylamino)-2-(4-chloro-3-(pyrrolidine-1-carboxamido)phenylamino)pyrimidine-5-carboxamide]",0.01 to 0.1,0.1 to 1,0.01 to 0.1,0.01 to 0.1
"CNC(=O)Nc1cc(Nc2ncc(C(N)=O)c(NCC3CC3)n2)ccc1Cl [Example 178, 2-(4-chloro-3-(3-methylureido)phenylamino)-4-(cyclopropylmethylamino)pyrimidine-5-carboxamide]",0.01 to 0.1,0.01 to 0.1,0.1 to 1,0.01 to 0.1
"NC(=O)c1cnc(Nc2cccc(NC(=O)N3CCCC3)c2)nc1NCc1cccc(Cl)c1 [Example 180, 4-(3-chlorobenzylamino)-2-(3-(pyrrolidine-1-carboxamido)phenylamino)pyrimidine-5-carboxamide]",0.01 to 0.1,0.01 to 0.1,0.01 to 0.1,0.001 to 0.01
